# Experiments:
# Type in all cases: functional
# Staphylococcus aureus [1] = assay: Antimicrobial activity against methicillin-susceptible Staphylococcus aureus by broth microdilution method
# Staphylococcus aureus [2] = assay: Antimicrobial activity against methicillin-resistant Staphylococcus aureus by broth microdilution method
# [3] = system: Staphylococcus epidermidis; assay: Antimicrobial activity against methicillin-susceptible Staphylococcus epidermidis by broth microdilution method
# [4] = system: Staphylococcus epidermidis; assay: Antimicrobial activity against methicillin-resistant Staphylococcus epidermidis by broth microdilution method
# Enterococcus faecalis [5] = assay: Antimicrobial activity against vancomycin-susceptible Enterococcus faecalis by broth microdilution method
# Enterococcus faecalis [6] = assay: Antimicrobial activity against vancomycin-resistant Enterococcus faecalis by broth microdilution method
# Enterococcus faecium [7] = assay: Antimicrobial activity against vancomycin-susceptible Enterococcus faecium by broth microdilution method
# Enterococcus faecium [8] = assay: Antimicrobial activity against vancomycin-resistant Enterococcus faecium by broth microdilution method
# Streptococcus pneumoniae [9] = assay: Antimicrobial activity against penicillin-susceptible Streptococcus pneumoniae by broth microdilution method
# Streptococcus pneumoniae [10] = assay: Antimicrobial activity against penicillin-intermediate Streptococcus pneumoniae by broth microdilution method
# Streptococcus pneumoniae [11] = assay: Antimicrobial activity against penicillin-resistant Streptococcus pneumoniae by broth microdilution method
# Streptococcus agalactiae = assay: Antimicrobial activity against Streptococcus agalactiae by broth microdilution method
Compound,MIC50 (Staphylococcus aureus [1]) [µg/mL],MIC90 (Staphylococcus aureus [1]) [µg/mL],MIC50 (Staphylococcus aureus [2]) [µg/mL],MIC90 (Staphylococcus aureus [2]) [µg/mL],MIC90 [3] [µg/mL],MIC50 [4] [µg/mL],MIC90 [4] [µg/mL],MIC50 (Enterococcus faecalis [5]) [µg/mL],MIC90 (Enterococcus faecalis [5]) [µg/mL],MIC50 (Enterococcus faecalis [6]) [µg/mL],MIC90 (Enterococcus faecalis [6]) [µg/mL],MIC50 (Enterococcus faecium [7]) [µg/mL],MIC90 (Enterococcus faecium [7]) [µg/mL],MIC50 (Enterococcus faecium [8]) [µg/mL],MIC90 (Enterococcus faecium [8]) [µg/mL],MIC50 (Streptococcus pneumoniae [9]) [µg/mL],MIC90 (Streptococcus pneumoniae [9]) [µg/mL],MIC50 (Streptococcus pneumoniae [10]) [µg/mL],MIC90 (Streptococcus pneumoniae [10]) [µg/mL],MIC50 (Streptococcus pneumoniae [11]) [µg/mL],also measured
CCCCCCCCCC(=O)N[C@@H](Cc1c[nH]c2ccccc12)C(=O)N[C@H](CC(N)=O)C(=O)N[C@@H](CC(=O)O)C(=O)N[C@@H]1C(=O)NCC(=O)N[C@@H](CCCN)C(=O)N[C@@H](CC(=O)O)C(=O)N[C@H](C)C(=O)N[C@@H](CC(=O)O)C(=O)NCC(=O)N[C@H](CO)C(=O)N[C@@H]([C@H](C)CC(=O)O)C(=O)N[C@@H](CC(=O)c2ccccc2N)C(=O)O[C@@H]1C,0.5,0.5,0.25,0.25,1,0.5,1,1,2,0.5,2,4,4,2,4,0.06,0.25,0.06,0.25,0.06,MIC [3]: 0.5 µg/mL; MIC50 [3]: 0.5 µg/mL; MIC [4]: 0.5 µg/mL; MIC90 (Streptococcus pneumoniae [11]): 0.12 µg/mL; MIC50 (Streptococcus agalactiae): 0.5 µg/mL; MIC90 (Streptococcus agalactiae): 2 µg/mL
CN[C@H](CC(C)C)C(=O)N[C@H]1C(=O)N[C@@H](CC(N)=O)C(=O)N[C@H]2C(=O)N[C@H]3C(=O)N[C@H](C(=O)N[C@H](C(=O)O)c4cc(O)cc(O)c4-c4cc3ccc4O)[C@H](O)c3ccc(c(Cl)c3)Oc3cc2cc(c3O[C@@H]2O[C@H](CO)[C@@H](O)[C@H](O)[C@H]2O[C@H]2C[C@](C)(N)[C@H](O)[C@H](C)O2)Oc2ccc(cc2Cl)[C@H]1O [VANCOMYCIN],0.5,1,0.5,1,2,2,2,1,2,> 64,> 64,0.5,1,> 64,> 64,0.25,0.25,0.25,0.25,0.25,MIC (Enterococcus faecalis [6]): > 64 µg/mL; MIC (Streptococcus pneumoniae [10]): 0.25 µg/mL; MIC (Streptococcus pneumoniae [11]): 0.25 µg/mL; MIC90 (Streptococcus pneumoniae [11]): 0.25 µg/mL; MIC50 (Streptococcus agalactiae): 1 µg/mL; MIC90 (Streptococcus agalactiae): 1 µg/mL
CC(=O)NC[C@H]1CN(c2ccc(N3CCOCC3)c(F)c2)C(=O)O1 [LINEZOLID],2,4,2,4,2,1,2,2,2,1,1,2,4,2,2,1,2,1,1,1,MIC50 [3]: 1 µg/mL; MIC [4]: 1 µg/mL; MIC (Enterococcus faecium [7]): 2 µg/mL; MIC90 (Streptococcus pneumoniae [11]): 1 µg/mL; MIC (Streptococcus agalactiae): 1 µg/mL; MIC50 (Streptococcus agalactiae): 1 µg/mL; MIC90 (Streptococcus agalactiae): 2 µg/mL

# From ChEMBL document CHEMBL1671722, “Comparative in vitro activity profiles of novel bis-indole antibacterials against gram-positive and gram-negative clinical isolates” (Antimicrob Agents Chemother, 2010)
